The text below walks through data of patent publication US7244557B2, “Method of screening modulators of Nod1 signaling” (Regents of the University of Michigan, priority 2003, dated 2007).

Assay type in all cases: cell-based
The target of one test is T1, NOD1 (Homo sapiens, UniProt Q9Y239).
T1 construct: expressed in transfected cells; host or cells: HEK293T
T1 sequence (Q9Y239 1-953): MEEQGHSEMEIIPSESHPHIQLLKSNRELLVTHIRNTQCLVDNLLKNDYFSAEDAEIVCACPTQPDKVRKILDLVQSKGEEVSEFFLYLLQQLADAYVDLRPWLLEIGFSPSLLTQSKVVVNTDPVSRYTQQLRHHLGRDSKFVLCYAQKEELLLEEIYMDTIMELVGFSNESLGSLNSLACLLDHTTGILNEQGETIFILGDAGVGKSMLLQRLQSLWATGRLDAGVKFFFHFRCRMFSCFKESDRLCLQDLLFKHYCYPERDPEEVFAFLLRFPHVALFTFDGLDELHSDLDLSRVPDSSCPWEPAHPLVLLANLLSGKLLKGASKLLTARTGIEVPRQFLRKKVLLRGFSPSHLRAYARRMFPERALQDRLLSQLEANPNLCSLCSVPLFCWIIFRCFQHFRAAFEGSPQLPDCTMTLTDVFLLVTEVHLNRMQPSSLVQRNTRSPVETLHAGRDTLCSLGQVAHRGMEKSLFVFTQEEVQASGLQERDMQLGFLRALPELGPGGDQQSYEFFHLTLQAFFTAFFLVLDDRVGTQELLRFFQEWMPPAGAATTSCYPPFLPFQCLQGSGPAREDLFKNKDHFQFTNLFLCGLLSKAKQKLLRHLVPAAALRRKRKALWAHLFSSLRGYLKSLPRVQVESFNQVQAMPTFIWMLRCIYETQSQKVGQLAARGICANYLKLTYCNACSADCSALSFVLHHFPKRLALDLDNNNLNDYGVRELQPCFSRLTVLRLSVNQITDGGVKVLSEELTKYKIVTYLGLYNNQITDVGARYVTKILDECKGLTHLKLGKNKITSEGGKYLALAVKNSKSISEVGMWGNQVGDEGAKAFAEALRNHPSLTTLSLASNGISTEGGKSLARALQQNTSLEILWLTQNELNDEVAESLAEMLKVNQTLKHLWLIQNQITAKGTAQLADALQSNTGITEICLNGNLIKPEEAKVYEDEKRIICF
The test can be described thus: NF-κB-dependent luciferase reporter assay, HEK293T cells expressing NOD1. From the text:
Reagents. LPS from S. typhimurium, intact and alkaline-detoxified LPS from E. coli O55:B5 as well as purified lipid A preparations of E. coli F583, MDP, DAP and dsRNA were obtained from Sigma-Aldrich (St. Louis, Mo.). PGN from S. aureus was from Fluka-Chemie (Buchs, Germany). Palmitoyl-Cys ((RS)-2,3-di(palmitoyloxy)-propyl)-Ala-Gly) (sBLP), was obtained from Bachem (Torrance, Calif.). The tetrameric form of the disaccharide dipeptide was described previously (Inohara et al., J. Biol. Chem. 278:5509 [2003]). iE-DAP and iQ-DAP, M3P and M4P were synthesized as described (Kitaura et al., J. Med. Chem. 25:335 [1982]) with small modification. Purification of PGN from B. subtilis 168 and C. flaccumfaciens with hydrolases, Cellosyl or recombinant AtlE (amidase domain) and the fractionation and purification of reduced B. subtilis PGN digested with Cellosyl were performed as previously described (Heilman et al., Mol. Microbiol. 24:1013 [1997]; Atrih et al., J. Bact. 181:3956 [1999]). Removal of proteins and reduction of LPS fraction. E. coli O55:B5 LPS (Sigma) was treated with proteinase K at 37° C. for 12 hr to digest contaminating proteins. To eliminate lipoproteins, LPS was subjected to modified phenol extraction with deoxycholate-containing phenol as described (Hirschfeld et al., J. Immunol. 165:618 [2000]). For reduction of carboxyl group in the LPS, the LPS was treated with 1-ethyl-3-(3-dimethylaminopropyl) carbodiimide and then reduced with NaBH4 as described (Taylor et al., Biochemistry 11:1383 [1972]). Preparation of E. coli extract. E. coli K-12 mutants were all based on the SØ864 genetic background (lacZ trp upp relA rpsL) (Neuhard and Thomassen, J. Bacteriol. 126:999). SØ874 carries a large chromosomal deletion removing the gene clusters for the biosynthesis of CA capsule and O-antigen. CLM5 is a derivative of SØ874 with a transposon insertion in the wecC gene that blocks the synthesis of ECA (Marolda et al., J. Bacteriol. 177:5539[1995]). FAM5 is a derivative of SØ874 carrying a deletion that eliminates the incorporation of heptose in the LPS core. Extracts were prepared from all of these E. coli K-12 strains and also from another E. coli K-12 strain, LCD27 YA21-6 (Obtained from Dr. Arisaka, Tokyo Institute of Technology). Bacteria were cultured overnight at 37° C. in Luria broth, killed by treatment with acetone followed by vacuum drying and finally resuspended in 10 mM HEPES. The extract was treated with 1M NaOH at 55° C. for 12 hr and neutralized with 1M HEPES (pH 7.4). The soluble fraction after centrifugation and filtration with 0.22 μm filter was applied to SUPEROSE 12 gel filtration column chromatography. Partial purification of NOD1-stimulatory molecules from E. coli and composition analyses. The amino acid composition of E. coli O55:B5 LPS was determined using AccQ·Tag amino acid analysis system (Waters, Milford, Mass.) after hydrolysis at 110° C. for 24 hr. For carbohydrate analysis, E coli K-12 YA21-6 (Ref 26) cultured overnight at 37° C. in L-broth were washed with TBS twice and incubated with TBS containing 1 mglml DNase I, RNase I and lysozyme for 37° C. for 2 hr. Acetone was added to the extracts at 50% final concentration and the insoluble fractions were washed with an excess of 75% and 100% acetone. After vacuum drying, the acetone extract was solublized with 1 M NaOH and incubated at 60° C. for 24 hr. The pH was adjusted to pH 5.0 with acetic acid and the soluble fraction was passed through SUPEROSE gel filtration column. SUPEROSE fractions with NOD1-stimulatory activity were diluted with 10 mM Tris-HCl (pH 8.8) and subjected to UnoQ column chromatography. The fractions were eluted with a linear gradient of 0–300 mM NaCl. The positive fractions were dialyzed against water and dried under vacuum. The monosaccharide composition of the fractions after TFA/methanol degradation was determined as previously described (Forsberg et al., J. Biol. Chem. 273:2747[1998]). Transfection and NF-κB Activation Assay. […]
On the technique in general: In a reporter assay the amount or activity of a reporter protein is the signal.

The target in the next test is T2, NOD2 (Homo sapiens, UniProt Q9HC29).
T2 construct: expressed in transfected cells; host or cells: HEK293T
The experiment in a line: NF-κB-dependent luciferase reporter assay, HEK293T cells expressing NOD2. From the text: (§1) Reagents. LPS from S. typhimurium, intact and alkaline-detoxified LPS from E. coli O55:B5 as well as purified lipid A preparations of E. coli F583, MDP, DAP and dsRNA were obtained from Sigma-Aldrich (St. Louis, Mo.). PGN from S. aureus was from Fluka-Chemie (Buchs, Germany). Palmitoyl-Cys ((RS)-2,3-di(palmitoyloxy)-propyl)-Ala-Gly) (sBLP), was obtained from Bachem (Torrance, Calif.). The tetrameric form of the disaccharide dipeptide was described previously (Inohara et al., J. Biol. Chem. 278:5509 [2003]). iE-DAP and iQ-DAP, M3P and M4P were synthesized as described (Kitaura et al., J. Med. Chem. 25:335 [1982]) with small modification. Purification of PGN from B. subtilis 168 and C. flaccumfaciens with hydrolases, Cellosyl or recombinant AtlE (amidase domain) and the fractionation and purification of reduced B. subtilis PGN digested with Cellosyl were performed as previously described (Heilman et al., Mol. Microbiol. 24:1013 [1997]; Atrih et al., J. Bact. 181:3956 [1999]). Removal of proteins and reduction of LPS fraction. […] The amino acid composition of E. coli O55:B5 LPS was determined using AccQ·Tag amino acid analysis system (Waters, Milford, Mass.) after hydrolysis at 110° C. for 24 hr. […] The monosaccharide composition of the fractions after TFA/methanol degradation was determined as previously described (Forsberg et al., J. Biol. Chem. 273:2747[1998]). […]

For a further test, the target named is T3, TLR4/MD-2 (Homo sapiens, UniProt O00206+Q9Y6Y9).
T3 construct: expressed in transfected cells; host or cells: HEK293T
The test can be described thus: NF-κB-dependent luciferase reporter assay, HEK293T cells expressing TLR4 with co-factor MD-2.
Description: as §1

T2 sequence (Q9HC29 whole entry): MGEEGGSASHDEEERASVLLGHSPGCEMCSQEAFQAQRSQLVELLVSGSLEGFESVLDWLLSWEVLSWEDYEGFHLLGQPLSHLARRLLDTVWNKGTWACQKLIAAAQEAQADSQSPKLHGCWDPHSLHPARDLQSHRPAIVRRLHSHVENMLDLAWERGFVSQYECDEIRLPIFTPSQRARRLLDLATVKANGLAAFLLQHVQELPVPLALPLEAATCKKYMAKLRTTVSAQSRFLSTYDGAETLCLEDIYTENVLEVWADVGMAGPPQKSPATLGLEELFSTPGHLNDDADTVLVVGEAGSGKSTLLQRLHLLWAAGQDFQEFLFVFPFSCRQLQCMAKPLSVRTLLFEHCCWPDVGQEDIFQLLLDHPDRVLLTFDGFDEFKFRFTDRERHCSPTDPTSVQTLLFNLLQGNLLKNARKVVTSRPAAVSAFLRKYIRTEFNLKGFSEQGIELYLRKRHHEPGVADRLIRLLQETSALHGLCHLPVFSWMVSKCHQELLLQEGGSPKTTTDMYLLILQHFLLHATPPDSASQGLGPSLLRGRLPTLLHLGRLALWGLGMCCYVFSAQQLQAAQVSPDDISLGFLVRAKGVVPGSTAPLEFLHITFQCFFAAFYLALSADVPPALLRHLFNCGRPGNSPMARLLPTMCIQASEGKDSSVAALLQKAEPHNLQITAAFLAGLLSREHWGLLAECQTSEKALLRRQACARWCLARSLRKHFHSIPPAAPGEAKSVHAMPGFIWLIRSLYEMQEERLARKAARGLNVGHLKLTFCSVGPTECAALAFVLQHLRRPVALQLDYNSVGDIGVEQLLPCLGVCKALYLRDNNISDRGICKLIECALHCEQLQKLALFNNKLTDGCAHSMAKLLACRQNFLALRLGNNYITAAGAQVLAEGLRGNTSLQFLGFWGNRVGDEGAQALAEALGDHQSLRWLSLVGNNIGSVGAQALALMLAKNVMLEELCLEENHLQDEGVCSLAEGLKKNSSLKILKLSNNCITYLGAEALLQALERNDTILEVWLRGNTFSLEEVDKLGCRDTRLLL
T3 sequence (O00206 24-839, species assumed): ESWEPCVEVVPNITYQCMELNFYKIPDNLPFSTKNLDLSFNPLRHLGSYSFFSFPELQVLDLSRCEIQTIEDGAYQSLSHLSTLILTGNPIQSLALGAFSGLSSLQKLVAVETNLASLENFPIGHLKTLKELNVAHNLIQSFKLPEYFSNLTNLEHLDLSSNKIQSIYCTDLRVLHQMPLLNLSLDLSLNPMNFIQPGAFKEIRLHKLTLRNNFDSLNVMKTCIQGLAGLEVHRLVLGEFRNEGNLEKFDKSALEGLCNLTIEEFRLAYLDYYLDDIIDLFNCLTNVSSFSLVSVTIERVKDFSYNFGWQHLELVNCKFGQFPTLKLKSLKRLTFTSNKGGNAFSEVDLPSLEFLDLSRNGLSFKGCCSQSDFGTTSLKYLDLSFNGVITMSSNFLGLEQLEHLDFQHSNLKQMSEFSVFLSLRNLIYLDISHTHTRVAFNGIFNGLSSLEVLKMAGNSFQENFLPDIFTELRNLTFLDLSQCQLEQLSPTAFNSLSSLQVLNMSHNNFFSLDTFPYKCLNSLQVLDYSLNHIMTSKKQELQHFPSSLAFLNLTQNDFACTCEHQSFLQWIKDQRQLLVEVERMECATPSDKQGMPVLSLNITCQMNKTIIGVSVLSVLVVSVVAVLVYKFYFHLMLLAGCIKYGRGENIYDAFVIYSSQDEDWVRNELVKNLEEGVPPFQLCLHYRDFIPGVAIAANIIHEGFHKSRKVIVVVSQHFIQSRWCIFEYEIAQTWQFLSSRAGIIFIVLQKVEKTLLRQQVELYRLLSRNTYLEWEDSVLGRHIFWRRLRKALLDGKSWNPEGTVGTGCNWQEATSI
T3 sequence (Q9Y6Y9 19-160, species assumed): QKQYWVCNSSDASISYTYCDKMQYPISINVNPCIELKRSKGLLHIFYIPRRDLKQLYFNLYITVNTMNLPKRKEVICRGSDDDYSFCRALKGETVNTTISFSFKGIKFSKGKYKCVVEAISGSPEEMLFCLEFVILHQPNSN

For the compound `N[C@H](CCC[C@H](N)C(=O)O)C(=O)O` [DAP, diaminopimelic acid], the “NOD1-dependent NF-κB activation (NOD1 stimulation)” value (from here on “NOD1-dependent NF-κB activation”) on NOD1 is given as “unable to stimulate NOD1”.

In the case of MurNAc-L-Ala-γ-D-Gln-L-Lys [M3P], the “NOD1-dependent NF-κB activation” value on NOD1 was “failed to stimulate NOD1”. Consider MurNAc-L-Ala-γ-D-Gln-L-Lys-D-Ala [M4P], for which the “NOD1-dependent NF-κB activation” value on NOD1 was “failed to stimulate NOD1”. On the same count and under the same terms, the entry for “N-acetylglucosamine(GlcNAc)-N-acetyl-Muramicitol-L-Ala-γ-D-Glu-meso-DAP [GM3p]” is “stimulated NOD1 in a dose-dependent manner”. As to lipid A, at NOD2, the “NOD2-dependent NF-κB activation” value was “not NOD1 and NOD2”. Moreover, the “NOD1-dependent NF-κB activation” value at NOD1 was “not NOD1 and NOD2”. Besides, the “TLR4/MD-2-dependent NF-κB activation” value on TLR4/MD-2 is “responded”.
